Measurements from ChEMBL document CHEMBL3817755, “Design, synthesis and biological evaluation of indazolepyrimidine based derivatives as anticancer agents with anti-angiogenic and antiproliferative activities” (Medchemcomm, 2016).

Assays:
Assay type in all cases: functional
[1] = tested on: CCRF-CEM; assay: Growth inhibition of human CCRF-CEM cells at 10 uM after 48 hrs by SRB assay; settings: read-out: GI
[2] = Growth inhibition of human MOLT4 cells at 10 uM after 48 hrs by SRB assay; settings: MOLT-4, 48 h, read-out: GI
[3] = Growth inhibition of human RPMI8226 cells at 10 uM after 48 hrs by SRB assay; settings: RPMI-8226, 48 h, read-out: GI
[4] = tested on: SR; assay: Growth inhibition of human SR cells at 10 uM after 48 hrs by SRB assay; settings: read-out: GI
[5] = tested on: A549; assay: Growth inhibition of human A549/ATCC cells at 10 uM after 48 hrs by SRB assay; settings: A549, 48 h, read-out: GI
[6] = Growth inhibition of human HOP62 cells at 10 uM after 48 hrs by SRB assay; settings: HOP-62, 48 h, read-out: GI
[7] = tested on: NCI-H226; assay: Growth inhibition of human NCI-H226 cells at 10 uM after 48 hrs by SRB assay; settings: NCI-H226, 48 h, read-out: GI
[8] = tested on: NCI-H322M; assay: Growth inhibition of human NCI-H322M cells at 10 uM after 48 hrs by SRB assay; settings: read-out: GI
[9] = Growth inhibition of human COLO205 cells at 10 uM after 48 hrs by SRB assay; settings: COLO 205, 48 h, read-out: GI
[10] = Growth inhibition of human HCC2998 cells at 10 uM after 48 hrs by SRB assay; settings: HCC 2998, 48 h, read-out: GI
[11] = Growth inhibition of human HCT116 cells at 10 uM after 48 hrs by SRB assay; settings: HCT-116, 48 h, read-out: GI
[12] = Growth inhibition of human HCT15 cells at 10 uM after 48 hrs by SRB assay; settings: HCT-15, 48 h, read-out: GI
[13] = tested on: HT-29; assay: Growth inhibition of human HT-29 cells at 10 uM after 48 hrs by SRB assay; settings: HT-29, 48 h, read-out: GI
[14] = tested on: KM12; assay: Growth inhibition of human KM12 cells at 10 uM after 48 hrs by SRB assay; settings: KM12, 48 h, read-out: GI
[15] = Growth inhibition of human SF295 cells at 10 uM after 48 hrs by SRB assay; settings: SF-295, 48 h, read-out: GI
[16] = Growth inhibition of human SF539 cells at 10 uM after 48 hrs by SRB assay; settings: SF-539, 48 h, read-out: GI
[17] = Growth inhibition of human SNB75 cells at 10 uM after 48 hrs by SRB assay; settings: SNB-75, 48 h, read-out: GI
[18] = Growth inhibition of human LOXIMVI cells at 10 uM after 48 hrs by SRB assay; settings: LOX IMVI, read-out: GI
[19] = tested on: Malme-3M; assay: Growth inhibition of human MALME-3M cells at 10 uM after 48 hrs by SRB assay; settings: read-out: GI
[20] = tested on: M14; assay: Growth inhibition of human M14 cells at 10 uM after 48 hrs by SRB assay; settings: M14, 48 h, read-out: GI
[21] = tested on: SK-MEL-28; assay: Growth inhibition of human SK-MEL-28 cells at 10 uM after 48 hrs by SRB assay; settings: SK-MEL-28, 48 h, read-out: GI
[22] = tested on: SK-MEL-5; assay: Growth inhibition of human SK-MEL-5 cells at 10 uM after 48 hrs by SRB assay; settings: SK-MEL-5, 48 h, read-out: GI
[23] = Growth inhibition of human UACC257 cells at 10 uM after 48 hrs by SRB assay; settings: UACC-257, 48 h, read-out: GI
[24] = Growth inhibition of human UACC62 cells at 10 uM after 48 hrs by SRB assay; settings: UACC-62, 48 h, read-out: GI
[25] = Growth inhibition of human IGROV1 cells at 10 uM after 48 hrs by SRB assay; settings: IGROV-1, 48 h, read-out: GI
[26] = Growth inhibition of human OVCAR5 cells at 10 uM after 48 hrs by SRB assay; settings: OVCAR-5, 48 h, read-out: GI
[27] = Growth inhibition of human OVCAR8 cells at 10 uM after 48 hrs by SRB assay; settings: OVCAR-8, 48 h, read-out: GI
[28] = Growth inhibition of human NCI-ADR-RES cells at 10 uM after 48 hrs by SRB assay; settings: read-out: GI
[29] = Growth inhibition of human SKOV3 cells at 10 uM after 48 hrs by SRB assay; settings: SK-OV-3, 48 h, read-out: GI
[30] = tested on: 786-0; assay: Growth inhibition of human 786-0 cells at 10 uM after 48 hrs by SRB assay; settings: 786-0, 48 h, read-out: GI
[31] = tested on: A498; assay: Growth inhibition of human A498 cells at 10 uM after 48 hrs by SRB assay; settings: A498, 48 h, read-out: GI
[32] = tested on: ACHN; assay: Growth inhibition of human ACHN cells at 10 uM after 48 hrs by SRB assay; settings: read-out: GI
[33] = Growth inhibition of human Caki1 cells at 10 uM after 48 hrs by SRB assay; settings: CAKI-1, 48 h, read-out: GI
[34] = Growth inhibition of human RXF393 cells at 10 uM after 48 hrs by SRB assay; settings: RXF 393, 48 h, read-out: GI
[35] = tested on: SN12C; assay: Growth inhibition of human SN12C cells at 10 uM after 48 hrs by SRB assay; settings: read-out: GI
[36] = Growth inhibition of human TK10 cells at 10 uM after 48 hrs by SRB assay; settings: TK-10, 48 h, read-out: GI
[37] = Growth inhibition of human UO31 cells at 10 uM after 48 hrs by SRB assay; settings: UO-31, 48 h, read-out: GI
[38] = Growth inhibition of human PC3 cells at 10 uM after 48 hrs by SRB assay; settings: PC-3, 48 h, read-out: GI
[39] = Growth inhibition of human DU145 cells at 10 uM after 48 hrs by SRB assay; settings: DU-145, 48 h, read-out: GI
[40] = tested on: MCF7; assay: Growth inhibition of human MCF7 cells at 10 uM after 48 hrs by SRB assay; settings: MCF7, 48 h, read-out: GI
[41] = tested on: MDA-MB-231; assay: Growth inhibition of human MDA-MB-231 cells at 10 uM after 48 hrs by SRB assay; settings: MDA-MB-231, 48 h, read-out: GI
[42] = Growth inhibition of human Hs 578T cells at 10 uM after 48 hrs by SRB assay; settings: read-out: GI
[43] = Growth inhibition of human BT549 cells at 10 uM after 48 hrs by SRB assay; settings: BT-549, 48 h, read-out: GI

Molecule `COc1ccc(Nc2nccc(Nc3ccc4[nH]ncc4c3)n2)cc1` has an inhibition of growth at 10 µM [1] of 102%, an inhibition of growth at 10 µM [2] of 99% and an inhibition of growth at 10 µM [3] of 97%. For the same molecule, the inhibition of growth at 10 µM [4] was 96%, the inhibition of growth at 10 µM [5] was 76% and the inhibition of growth at 10 µM [6] was 51%. It also gave an inhibition of growth at 10 µM [7] of 72%, an inhibition of growth at 10 µM [8] of 37% and an inhibition of growth at 10 µM [9] of 74%. The inhibition of growth at 10 µM [10] was 37%, the inhibition of growth at 10 µM [11] was 81% and the inhibition of growth at 10 µM [12] was 94%. For the same molecule, the inhibition of growth at 10 µM [13] was 88%, the inhibition of growth at 10 µM [14] was 90% and the inhibition of growth at 10 µM [15] was 52%. The inhibition of growth at 10 µM [16] was 31%, the inhibition of growth at 10 µM [17] was 34% and the inhibition of growth at 10 µM [18] was 81%. For the same molecule, the inhibition of growth at 10 µM [19] was 24%, the inhibition of growth at 10 µM [20] was 67% and the inhibition of growth at 10 µM [21] was 34%. It also gave an inhibition of growth at 10 µM [22] of 98%, an inhibition of growth at 10 µM [23] of 54% and an inhibition of growth at 10 µM [24] of 61%. It also gave an inhibition of growth at 10 µM [25] of 49%, an inhibition of growth at 10 µM [26] of 48% and an inhibition of growth at 10 µM [27] of 91%. It also gave an inhibition of growth at 10 µM [28] of 82%, an inhibition of growth at 10 µM [29] of 48% and an inhibition of growth at 10 µM [30] of 56%. It also gave an inhibition of growth at 10 µM [31] of 63%, an inhibition of growth at 10 µM [32] of 71% and an inhibition of growth at 10 µM [33] of 62%. The inhibition of growth at 10 µM [34] was 68%, the inhibition of growth at 10 µM [35] was 57% and the inhibition of growth at 10 µM [36] was 81%. The inhibition of growth at 10 µM [37] was 84%, the inhibition of growth at 10 µM [38] was 87% and the inhibition of growth at 10 µM [39] was 68%. It also gave an inhibition of growth at 10 µM [40] of 87%, an inhibition of growth at 10 µM [41] of 51% and an inhibition of growth at 10 µM [42] of 53%. For the same molecule, the inhibition of growth at 10 µM [43] was 56%.
`COc1cccc(Nc2nccc(Nc3ccc4[nH]ncc4c3)n2)c1` gave an inhibition of growth at 10 µM [2] of 132%, an inhibition of growth at 10 µM [3] of 140% and an inhibition of growth at 10 µM [4] of 111%. It also gave an inhibition of growth at 10 µM [5] of 168%, an inhibition of growth at 10 µM [6] of 111% and an inhibition of growth at 10 µM [7] of 117%. It also gave an inhibition of growth at 10 µM [8] of 93%, an inhibition of growth at 10 µM [9] of 188% and an inhibition of growth at 10 µM [10] of 107%. It also gave an inhibition of growth at 10 µM [11] of 187%, an inhibition of growth at 10 µM [12] of 127% and an inhibition of growth at 10 µM [13] of 158%. The inhibition of growth at 10 µM [14] was 144%, the inhibition of growth at 10 µM [15] was 84% and the inhibition of growth at 10 µM [16] was 86%. For the same molecule, the inhibition of growth at 10 µM [17] was 70%, the inhibition of growth at 10 µM [18] was 167% and the inhibition of growth at 10 µM [19] was 149%. For the same molecule, the inhibition of growth at 10 µM [20] was 174%, the inhibition of growth at 10 µM [21] was 143% and the inhibition of growth at 10 µM [22] was 184%. For the same molecule, the inhibition of growth at 10 µM [23] was 89%, the inhibition of growth at 10 µM [24] was 157% and the inhibition of growth at 10 µM [25] was 124%. The inhibition of growth at 10 µM [26] was 67%, the inhibition of growth at 10 µM [27] was 181% and the inhibition of growth at 10 µM [28] was 111%. The inhibition of growth at 10 µM [29] was 85%, the inhibition of growth at 10 µM [30] was 112% and the inhibition of growth at 10 µM [31] was 87%. For the same molecule, the inhibition of growth at 10 µM [32] was 103%, the inhibition of growth at 10 µM [33] was 131% and the inhibition of growth at 10 µM [34] was 82%. The inhibition of growth at 10 µM [35] was 80%, the inhibition of growth at 10 µM [36] was 178% and the inhibition of growth at 10 µM [37] was 162%. For the same molecule, the inhibition of growth at 10 µM [38] was 181%, the inhibition of growth at 10 µM [39] was 159% and the inhibition of growth at 10 µM [40] was 151%. It also gave an inhibition of growth at 10 µM [41] of 85%, an inhibition of growth at 10 µM [42] of 76% and an inhibition of growth at 10 µM [43] of 116%.
